The values that follow come from patent publication US20260198526A1, “METHOD FOR PROMOTING DIFFERENTIATION OF ANIMAL CELL” (Ajinomoto Co., Inc., priority 2023, published 2026).

This assay has as its system chicken muscle stem cells. Briefly: Muscle differentiation of chicken muscle stem cells in serum-free differentiation medium (MyHC immunocytochemistry, Fusion Index). Conditions: additive concentrations of Table 1, second day, FIG. 2. Type of assay: cell-based. The procedure: Muscle tissue was collected from edible bovine shank meat, and CD56-positive cells were isolated using a Magnetic-Activated Cell Sorting (MACS) system to obtain bovine muscle stem cells. Separately, muscle stem cells were isolated from edible chicken breast meat.
Then, on the second day, the expression of myosin heavy chain (MyHC) was measured by immunocytochemistry. The cells were fixed with 4% paraformaldehyde (Nacalai Tesque, Cat No. 09154-85) for 15 minutes. After washing twice with Dulbecco's phosphate-buffered saline (without Ca, Mg) (Nacalai Tesque, Cat No. 14249-24), the cells were immersed in Dulbecco's phosphate-buffered saline (without Ca, Mg) containing 0.1% Triton X-100 (Sigma, Cat No. T9284) for 10 minutes. Then, the solution was replaced with a blocking buffer and left to stand for 1 hour. As the blocking buffer, a solution was used in which Dulbecco's phosphate-buffered saline (without Ca, Mg) was supplemented with 5% horse serum and 0.1% Triton X-100. […] MyHC-positive cells were detected with a fluorescence microscope ECLIPSE Ti2-E (Nikon), and the Fusion Index (=Number of MyHC-positive nuclei/Total number of nuclei×100(%)) was calculated. […]
Then, on the second day, the expression of myosin heavy chain (MyHC) was measured by the same method as in (1-2).

For the molecule `OCc1ccccc1O[C@@H]1O[C@H](CO)[C@@H](O)[C@H](O)[C@H]1O` [Salicin], the “muscle differentiation (MyHC expression, Fusion Index)” value is on record as “promoted the muscle differentiation of chicken cells”.
